# Source: patent US11110167B2 (priority 2011, dated 2021)
# System: human peripheral blood mononuclear cells (PBMC)
# Format: cell-based
Substance,IL-1α and IL-1β mean gene expression upregulated [fold],PPARg gene expression
lipopolysaccharide [LPS],4.4,consistently downregulated
polyinosinic:polycytidylic acid [Poly(I:C)],4.1,consistently downregulated
